The values that follow come from patent US20230052740A1, “MODULATORS OF CIRCADIAN RHYTHMS AND USES THEREOF” (The Regents of the University of California, priority 2019, published 2023).

For this assay, the system named is hMT2. As to the kind of experiment: 2-[125I]-iodomelatonin competition binding, CHO cell membranes. To be noted: in 2-[125I]-iodomelatonin binding assays.

Description: For receptor binding studies, '7447 was dissolved in 50% DMSO/50% ethanol for 13 mM stock solution, diluted 1/10 in 100% ethanol then 1/10 again in 50% ethanol/50% Tris-HCl buffer. Both '3384 and '4226 were dissolved in 100% ethanol for 13 mM stock solutions and then diluted 1/10 in 50% ethanol/50% Tris-HCl buffer. Further dilutions were done in Tris-HCl buffer.
Assays were incubated for 1 hour at 25° C. Bound radioligand was separated from freeby rapidvacuum filtration using glass microfiber filters (Whatman, Krackeler Scientific, Inc., Albany N.Y., USA) saturated in 0.5% polyethylenimine solution.
Affinity shifts or lack thereof with G protein inactivation indicate apparent efficacy (Lefkowitz, R. J. et al., J Biol Chem 251, 4686-4692, 1976) as ligands are classified as agonists (ΔpKi% MLT>20%), antagonists (ΔpKi% MLT<20%, >−20%), or inverse agonists (ΔpKi% MLT<−20%) accordingly.

Take `COc1ccc(Br)c(CNc2cccnc2)c1` [ZINC128734226]: the MT2/MT1 selectivity is recorded as 54.
